Test: MALDI-TOF screening of Ni^2+ dependent hydrolysis in a combinatorial peptide library
Format: physicochemical
Conditions: CH3CO-Gly-Ala-Thr-X-His-Z-Lys-Phe-Leu-NH2 library, Ni^2+ 2 mM, pH 8.2, 10 mM Tris, score=24/tm
Outline: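 The screen used 1 mM peptide mixtures in 10 mM Tris, pH 8.2, with 2 mM Ni2+ at two temperatures, 37 °C and 45 °C. Product appearance and substrate decline were monitored visually by MALDI-TOF over 8 h. Scores for X and Z were then summed by row and column to rank substitutions.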

| Substance | hydrolysis score from MALDI-TOF screening (37° C.) | hydrolysis score from MALDI-TOF screening (45° C.) |
| --- | --- | --- |
| Ac-GATGHRKFL-NH2 [TGHR] | 0 (a score of 0 if no trace of the product of hydrolysis was seen after 8 hours of incubation) | 0 (a score of 0 if no trace of the product of hydrolysis was seen after 8 hours of incubation) |
| Ac-GATGHSKFL-NH2 [TGHS] | 0 (a score of 0 if no trace of the product of hydrolysis was seen after 8 hours of incubation) | 0 (a score of 0 if no trace of the product of hydrolysis was seen after 8 hours of incubation) |
| Ac-GATGHTKFL-NH2 [TGHT] | 0 (a score of 0 if no trace of the product of hydrolysis was seen after 8 hours of incubation) | 0 (a score of 0 if no trace of the product of hydrolysis was seen after 8 hours of incubation) |
| Ac-GATGHVKFL-NH2 [TGHV] | 0 (a score of 0 if no trace of the product of hydrolysis was seen after 8 hours of incubation) | 0 (a score of 0 if no trace of the product of hydrolysis was seen after 8 hours of incubation) |
| Ac-GATGHWKFL-NH2 [TGHW] | 0 (a score of 0 if no trace of the product of hydrolysis was seen after 8 hours of incubation) | 0 (a score of 0 if no trace of the product of hydrolysis was seen after 8 hours of incubation) |
| Ac-GATGHYKFL-NH2 [TGHY] | 0 (a score of 0 if no trace of the product of hydrolysis was seen after 8 hours of incubation) | 0 (a score of 0 if no trace of the product of hydrolysis was seen after 8 hours of incubation) |
| Ac-GATHHAKFL-NH2 [THHA] | 0 (a score of 0 if no trace of the product of hydrolysis was seen after 8 hours of incubation) | 4 (a score of 4 for detection at 6 hours) |
| Ac-GATHHDKFL-NH2 [THHD] | 0 (a score of 0 if no trace of the product of hydrolysis was seen after 8 hours of incubation) | 0 (a score of 0 if no trace of the product of hydrolysis was seen after 8 hours of incubation) |
| Ac-GATHHEKFL-NH2 [THHE] | 0 (a score of 0 if no trace of the product of hydrolysis was seen after 8 hours of incubation) | 0 (a score of 0 if no trace of the product of hydrolysis was seen after 8 hours of incubation) |
| Ac-GATHHFKFL-NH2 [THHF] | 0 (a score of 0 if no trace of the product of hydrolysis was seen after 8 hours of incubation) | 6 (a score of 6 for detection at 4 hours) |
| Ac-GATHHGKFL-NH2 [THHG] | 0 (a score of 0 if no trace of the product of hydrolysis was seen after 8 hours of incubation) | 4 (a score of 4 for detection at 6 hours) |
| Ac-GATHHHKFL-NH2 [THHH] | 3 (a score of 3 for detection at 8 hours) | 4 (a score of 4 for detection at 6 hours) |
| Ac-GATHHIKFL-NH2 [THHI] | 3 (a score of 3 for detection at 8 hours) | 12 (a score of 12, if it was seen to be partially hydrolysed at 2 hours) |
| Ac-GATHHKKFL-NH2 [THHK] | 6 (a score of 6 for detection at 4 hours) | 12 (a score of 12, if it was seen to be partially hydrolysed at 2 hours) |
| Ac-GATHHLKFL-NH2 [THHL] | 3 (a score of 3 for detection at 8 hours) | 12 (a score of 12, if it was seen to be partially hydrolysed at 2 hours) |
| Ac-GATHHMKFL-NH2 [THHM] | 0 (a score of 0 if no trace of the product of hydrolysis was seen after 8 hours of incubation) | 4 (a score of 4 for detection at 6 hours) |
| Ac-GATHHNKFL-NH2 [THHN] | 0 (a score of 0 if no trace of the product of hydrolysis was seen after 8 hours of incubation) | 0 (a score of 0 if no trace of the product of hydrolysis was seen after 8 hours of incubation) |
| Ac-GATHHPKFL-NH2 [THHP] | 0 (a score of 0 if no trace of the product of hydrolysis was seen after 8 hours of incubation) | 0 (a score of 0 if no trace of the product of hydrolysis was seen after 8 hours of incubation) |
| Ac-GATHHRKFL-NH2 [THHR] | 6 (a score of 6 for detection at 4 hours) | 6 (a score of 6 for detection at 4 hours) |
| Ac-GATHHSKFL-NH2 [THHS] | 0 (a score of 0 if no trace of the product of hydrolysis was seen after 8 hours of incubation) | 4 (a score of 4 for detection at 6 hours) |
| Ac-GATHHTKFL-NH2 [THHT] | 0 (a score of 0 if no trace of the product of hydrolysis was seen after 8 hours of incubation) | 4 (a score of 4 for detection at 6 hours) |
| Ac-GATHHVKFL-NH2 [THHV] | 0 (a score of 0 if no trace of the product of hydrolysis was seen after 8 hours of incubation) | 6 (a score of 6 for detection at 4 hours) |
| Ac-GATHHWKFL-NH2 [THHW] | 12 (a score of 12, if it was seen to be partially hydrolysed at 2 hours) | 12 (a score of 12, if it was seen to be partially hydrolysed at 2 hours) |
| Ac-GATHHYKFL-NH2 [THHY] | 0 (a score of 0 if no trace of the product of hydrolysis was seen after 8 hours of incubation) | 6 (a score of 6 for detection at 4 hours) |
| Ac-GATIHAKFL-NH2 [TIHA] | 0 (a score of 0 if no trace of the product of hydrolysis was seen after 8 hours of incubation) | 0 (a score of 0 if no trace of the product of hydrolysis was seen after 8 hours of incubation) |
| Ac-GATIHDKFL-NH2 [TIHD] | 0 (a score of 0 if no trace of the product of hydrolysis was seen after 8 hours of incubation) | 0 (a score of 0 if no trace of the product of hydrolysis was seen after 8 hours of incubation) |
| Ac-GATIHFKFL-NH2 [TIHF] | 0 (a score of 0 if no trace of the product of hydrolysis was seen after 8 hours of incubation) | 0 (a score of 0 if no trace of the product of hydrolysis was seen after 8 hours of incubation) |
